According to ChEMBL document CHEMBL5226390, “Synthesis and Structure-Activity Analysis of Icaritin Derivatives as Potential Tumor Growth Inhibitors of Hepatocellular Carcinoma Cells” (J Nat Prod, 2023):
The source made the active and inactive calls. The calls are words filed in the database; no cut-off is given here.

Columns and labels:
[1] = system: SMMC-7721; assay: Antiproliferative activity against human SMMC-7721 cells assessed as reduction in cell viability incubated for 48 hrs by MTT assay; type: functional, cell-based; conditions: Homo sapiens, SMMC-7721, 48 h; read-out: IC50
[2] = system: HepG2; assay: Induction of apoptosis in human HepG2 cells assessed as chromatin condensation and fragmentation at 2 to 8 uM incubated for 48 hrs by Hoechst 33258 staining based fluorescence microscopic analysis; type: functional, cell-based; conditions: dose 2-8 µM
[3] = system: HepG2; assay: Induction of apoptosis in human HepG2 cells assessed as viable cells at 2 uM incubated for 48 hrs by AnnexinV-FITC/PI staining based flow cytometry (reference value: 91.1%); type: functional; conditions: read-out: Activity
[4] = system: HepG2; assay: Induction of apoptosis in human HepG2 cells assessed as late apoptotic cells at 2 uM incubated for 48 hrs by AnnexinV-FITC/PI staining based flow cytometry (reference value: 3.23%); type: functional
[5] = system: HepG2; assay: Induction of apoptosis in human HepG2 cells assessed as viable cells at 4 uM incubated for 48 hrs by AnnexinV-FITC/PI staining based flow cytometry (reference value: 91.1%); type: functional; conditions: read-out: Activity
[6] = system: HepG2; assay: Induction of apoptosis in human HepG2 cells assessed as early apoptotic cells at 4 uM incubated for 48 hrs by AnnexinV-FITC/PI staining based flow cytometry (reference value: 3.41%); type: functional
[7] = system: HepG2; assay: Induction of apoptosis in human HepG2 cells assessed as necrotic cells at 4 uM incubated for 48 hrs by AnnexinV-FITC/PI staining based flow cytometry (reference value: 2.22%); type: functional
[8] = system: HepG2; assay: Induction of apoptosis in human HepG2 cells assessed as early apoptotic cells at 8 uM incubated for 48 hrs by AnnexinV-FITC/PI staining based flow cytometry (reference value: 3.41%); type: functional
[9] = system: HepG2; assay: Induction of apoptosis in human HepG2 cells assessed as late apoptotic cells at 8 uM incubated for 48 hrs by AnnexinV-FITC/PI staining based flow cytometry (reference value: 3.23%); type: functional
[10] = system: HepG2; assay: Induction of apoptosis in human HepG2 cells assessed as necrotic cells at 8 uM incubated for 48 hrs by AnnexinV-FITC/PI staining based flow cytometry (reference value: 2.22%); type: functional
[11] = system: SMMC-7721; assay: Induction of apoptosis in human SMMC-7721 cells assessed as viable cells at 4 uM incubated for 48 hrs by AnnexinV-FITC/PI staining based flow cytometry (reference value: 85.1%); type: functional; conditions: read-out: Activity
[12] = system: SMMC-7721; assay: Induction of apoptosis in human SMMC-7721 cells assessed as early apoptotic cells at 4 uM incubated for 48 hrs by AnnexinV-FITC/PI staining based flow cytometry (reference value: 1.13%); type: functional
[13] = system: SMMC-7721; assay: Induction of apoptosis in human SMMC-7721 cells assessed as late apoptotic cells at 4 uM incubated for 48 hrs by AnnexinV-FITC/PI staining based flow cytometry (reference value: 1.51%); type: functional
[14] = system: SMMC-7721; assay: Induction of apoptosis in human SMMC-7721 cells assessed as early apoptotic cells at 8 uM incubated for 48 hrs by AnnexinV-FITC/PI staining based flow cytometry (reference value: 1.13%); type: functional
[15] = system: SMMC-7721; assay: Induction of apoptosis in human SMMC-7721 cells assessed as late apoptotic cells at 8 uM incubated for 48 hrs by AnnexinV-FITC/PI staining based flow cytometry (reference value: 1.51%); type: functional
[16] = system: SMMC-7721; assay: Induction of apoptosis in human SMMC-7721 cells assessed as necrotic cells at 8 uM incubated for 48 hrs by AnnexinV-FITC/PI staining based flow cytometry (reference value: 12.3%); type: functional
[17] = system: HepG2; assay: Induction of cell cycle arrest in human HepG2 cells assessed as accumulation of cells at G2/M phase at 2 uM incubated for 48 hrs by PI staining based flow cytometry (reference value: 17.89%); type: functional
[18] = system: HepG2; assay: Induction of cell cycle arrest in human HepG2 cells assessed as accumulation of cells at G0/G1 phase at 4 uM incubated for 48 hrs by PI staining based flow cytometry (reference value: 64.11%); type: functional
[19] = system: HepG2; assay: Induction of cell cycle arrest in human HepG2 cells assessed as accumulation of cells at S phase at 4 uM incubated for 48 hrs by PI staining based flow cytometry (reference value: 18%); type: functional
[20] = system: HepG2; assay: Induction of cell cycle arrest in human HepG2 cells assessed as accumulation of cells at G2/M phase at 4 uM incubated for 48 hrs by PI staining based flow cytometry (reference value: 17.89%); type: functional
[21] = system: HepG2; assay: Induction of cell cycle arrest in human HepG2 cells assessed as accumulation of cells at G0/G1 phase at 8 uM incubated for 48 hrs by PI staining based flow cytometry (reference value: 64.11%); type: functional
[22] = system: HepG2; assay: Induction of cell cycle arrest in human HepG2 cells assessed as accumulation of cells at S phase at 8 uM incubated for 48 hrs by PI staining based flow cytometry (reference value: 18%); type: functional
[23] = system: SMMC-7721; assay: Induction of cell cycle arrest in human SMMC-7721 cells assessed as accumulation of cells at S phase at 2 uM incubated for 48 hrs by PI staining based flow cytometry (reference value: 24.94%); type: functional
[24] = system: SMMC-7721; assay: Induction of cell cycle arrest in human SMMC-7721 cells assessed as accumulation of cells at G2/M phase at 2 uM incubated for 48 hrs by PI staining based flow cytometry (reference value: 15.49%); type: functional
[25] = system: SMMC-7721; assay: Induction of cell cycle arrest in human SMMC-7721 cells assessed as accumulation of cells at G0/G1 phase at 4 uM incubated for 48 hrs by PI staining based flow cytometry (reference value: 59.57%); type: functional
[26] = system: SMMC-7721; assay: Induction of cell cycle arrest in human SMMC-7721 cells assessed as accumulation of cells at G2/M phase at 4 uM incubated for 48 hrs by PI staining based flow cytometry (reference value: 15.49%); type: functional
[27] = system: SMMC-7721; assay: Induction of cell cycle arrest in human SMMC-7721 cells assessed as accumulation of cells at G0/G1 phase at 8 uM incubated for 48 hrs by PI staining based flow cytometry (reference value: 59.57%); type: functional
[28] = system: SMMC-7721; assay: Induction of cell cycle arrest in human SMMC-7721 cells assessed as accumulation of cells at S phase at 8 uM incubated for 48 hrs by PI staining based flow cytometry (reference value: 24.94%); type: functional
[29] = system: HepG2; assay: Induction of cell cycle arrest in human HepG2 cells assessed as downregulation of Cdc2 protein expression at 2 to 8 uM incubated for 48 hrs by western blot analysis; type: functional, cell-based; conditions: dose 2-8 µM
[30] = system: HepG2; assay: Induction of cell cycle arrest in human HepG2 cells assessed as downregulation of p34 protein expression at 2 to 8 uM incubated for 48 hrs by western blot analysis; type: functional, cell-based; conditions: dose 2-8 µM
[31] = system: SMMC-7721; assay: Induction of cell cycle arrest in human SMMC-7721 cells assessed as downregulation of CDK4 protein expression at 2 to 8 uM incubated for 48 hrs by western blot analysis; type: functional, cell-based; conditions: dose 2-8 µM
[32] = system: HepG2; assay: Potency index, ratio of Sorafenib IC50 to test compound IC50 for antiproliferative activity against human HepG2 cells; type: functional
[33] = system: SMMC-7721; assay: Potency index, ratio of Sorafenib IC50 to test compound IC50 for antiproliferative activity against human SMMC-7721 cells; type: functional

IC50 [1]: 3.1 µM
SMILES: COc1ccc(-c2oc3c(CC=C(C)C)c(OCCN4CCCC4)cc(O)c3c(=O)c2O[C@H]2O[C@H](C)[C@@H](O)[C@H](O)[C@@H]2O)cc1
Activity [2]: Active
viability at 2 µM [3]: 83.3%
Activity [4]: 6.26%
viability at 4 µM [5]: 86.2%
Activity [6]: 5.14%
Activity [7]: 3.21%
Activity [8]: 3.42%
Activity [9]: 17.7%
Activity [10]: 16.7%
viability at 4 µM [11]: 89.6%
Activity [12]: 2.54%
Activity [13]: 6.92%
Activity [14]: 3.28%
Activity [15]: 8.46%
Activity [16]: 22.1%
Activity [17]: 17.51%
Activity [18]: 80.03%
Activity [19]: 9.28%
Activity [20]: 10.7%
Activity [21]: 91.15%
Activity [22]: 2.47%
Activity [23]: 23.71%
Activity [24]: 13.29%
Activity [25]: 65.57%
Activity [26]: 14.83%
Activity [27]: 78.65%
Activity [28]: 12.47%
Activity [29]: Active
Activity [30]: Active
Activity [31]: Active
Ratio IC50 [32]: 2
Ratio IC50 [33]: 2
